Key:
[1] = test system: velvetleaf; assay: Test Example 4: herbicidal effect by soil treatment (Table 19, symbol M); format: in vivo, velvetleaf (Abutilon theophrasti); details: AAH 320 g/ha
Summary of the method: (§1)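 Three weeks of greenhouse growth at 25° C. to 30° C. followed a uniform surface spray of water-diluted emulsion at a predetermined herbicide amount. Seeds had been sown beforehand under about 1.5 cm of sterilized diluvial soil. Grading followed criteria set out in an earlier test.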

[2] = test system: barnyard grass; assay: Test Example 3: herbicidal effect by foliage application, Wagner pot (Table 18, symbol H); format: in vivo, barnyard grass (Echinochloa crus-galli); details: 320 g/ha
Summary of the method: (§2)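 Plants were sown in alluvial soil held under 0.1–0.5 cm standing water and grown 14 days in a greenhouse at 25–30 °C. An emulsifiable formulation, water-diluted to the set dose, was then sprayed onto the foliage, and effects were scored three weeks later using previously defined criteria.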

[3] = test system: redroot pigweed; assay: Test Example 4: herbicidal effect by soil treatment (Table 19, symbol N); format: in vivo, redroot pigweed (Amaranthus retroflexus); details: AAH 320 g/ha
Summary of the method: as §1

[4] = test system: southern crabgrass; assay: Test Example 4: herbicidal effect by soil treatment (Table 19, symbol F); format: in vivo, southern crabgrass (Digitaria ciliaris); details: AAH 320 g/ha
Summary of the method: as §1

[5] = test system: blackgrass; assay: Test Example 5: herbicidal effect by foliage application, plastic box (Table 20, symbol J); format: in vivo, blackgrass (Alopecurus myosuroides); details: foliage application, 320 g/ha, 3 weeks after application
Summary of the method: (§3)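 Plants sown in sterilized diluvial soil and grown 14 days in a greenhouse at 25° C to 30° C, then sprayed on the foliage with the compound's emulsion diluted in water to a predetermined herbicide amount. Injury to weeds and crops scored three weeks after application on a visual rating scale.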

[6] = test system: rice flat sedge; assay: Test Example 3: herbicidal effect by foliage application, Wagner pot (Table 18, symbol E); format: in vivo, rice flat sedge (Cyperus iria); details: 320 g/ha
Summary of the method: as §2

[7] = test system: green foxtail; assay: Test Example 5: herbicidal effect by foliage application, plastic box (Table 20, symbol G); format: in vivo, green foxtail (Setaria viridis); details: foliage application, 320 g/ha, 3 weeks after application
Summary of the method: as §3

[8] = test system: velvetleaf; assay: Test Example 5: herbicidal effect by foliage application, plastic box (Table 20, symbol M); format: in vivo, velvetleaf (Abutilon theophrasti); details: foliage application, 320 g/ha, 3 weeks after application
Summary of the method: as §3

[9] = test system: persian speedwell; assay: Test Example 4: herbicidal effect by soil treatment (Table 19, symbol R); format: in vivo, Persian speedwell (Veronica persica); details: AAH 320 g/ha
Summary of the method: as §1

[10] = test system: Chinese sprangletop; assay: Test Example 3: herbicidal effect by foliage application, Wagner pot (Table 18, symbol D); format: in vivo, chinese sprangletop (Leptochloa chinensis); details: 320 g/ha
Summary of the method: as §2

[11] = test system: barnyard grass; assay: Test Example 5: herbicidal effect by foliage application, plastic box (Table 20, symbol H); format: in vivo, barnyard grass (Echinochloa crus-galli); details: foliage application, 320 g/ha, 3 weeks after application
Summary of the method: as §3

[12] = test system: Italian ryegrass; assay: Test Example 5: herbicidal effect by foliage application, plastic box (Table 20, symbol K); format: in vivo, Italian ryegrass (Lolium multiflorum); details: foliage application, 320 g/ha, 3 weeks after application
Summary of the method: as §3

[13] = test system: wild oat; assay: Test Example 5: herbicidal effect by foliage application, plastic box (Table 20, symbol I); format: in vivo, wild oat (Avena fatua); details: foliage application, 320 g/ha, 3 weeks after application
Summary of the method: as §3

[14] = test system: chickweed; assay: Test Example 4: herbicidal effect by soil treatment (Table 19, symbol P); format: in vivo, common chickweed (Stellaria media); details: AAH 320 g/ha
Summary of the method: as §1

[15] = test system: lambsquarters; assay: Test Example 5: herbicidal effect by foliage application, plastic box (Table 20, symbol O); format: in vivo, lambsquarters (Chenopodium album); details: foliage application, 320 g/ha, 3 weeks after application
Summary of the method: as §3

[16] = test system: lambsquarters; assay: Test Example 4: herbicidal effect by soil treatment (Table 19, symbol O); format: in vivo, lambsquarters (Chenopodium album); details: AAH 320 g/ha
Summary of the method: as §1

[17] = test system: blackgrass; assay: Test Example 4: herbicidal effect by soil treatment (Table 19, symbol J); format: in vivo, blackgrass (Alopecurus myosuroides); details: AAH 320 g/ha
Summary of the method: as §1

[18] = test system: false cleavers; assay: Test Example 5: herbicidal effect by foliage application, plastic box (Table 20, symbol Q); format: in vivo, false cleavers (Galium spurium); details: foliage application, 320 g/ha, 3 weeks after application
Summary of the method: as §3

[19] = test system: windgrass; assay: Test Example 4: herbicidal effect by soil treatment (Table 19, symbol L); format: in vivo, windgrass (Apera spica-venti); details: AAH 320 g/ha
Summary of the method: as §1

[20] = test system: southern crabgrass; assay: Test Example 5: herbicidal effect by foliage application, plastic box (Table 20, symbol F); format: in vivo, southern crabgrass (Digitaria ciliaris); details: foliage application, 320 g/ha, 3 weeks after application
Summary of the method: as §3

[21] = test system: barnyard grass; assay: Test Example 4: herbicidal effect by soil treatment (Table 19, symbol H); format: in vivo, barnyard grass (Echinochloa crus-galli); details: AAH 320 g/ha
Summary of the method: as §1

[22] = test system: wild oat; assay: Test Example 4: herbicidal effect by soil treatment (Table 19, symbol I); format: in vivo, wild oat (Avena fatua); details: AAH 320 g/ha
Summary of the method: as §1

[23] = test system: persian speedwell; assay: Test Example 5: herbicidal effect by foliage application, plastic box (Table 20, symbol R); format: in vivo, Persian speedwell (Veronica persica); details: foliage application, 320 g/ha, 3 weeks after application
Summary of the method: as §3

[24] = test system: windgrass; assay: Test Example 5: herbicidal effect by foliage application, plastic box (Table 20, symbol L); format: in vivo, windgrass (Apera spica-venti); details: foliage application, 320 g/ha, 3 weeks after application
Summary of the method: as §3

[25] = test system: false cleavers; assay: Test Example 4: herbicidal effect by soil treatment (Table 19, symbol Q); format: in vivo, false cleavers (Galium spurium); details: AAH 320 g/ha
Summary of the method: as §1

[26] = test system: Italian ryegrass; assay: Test Example 4: herbicidal effect by soil treatment (Table 19, symbol K); format: in vivo, Italian ryegrass (Lolium multiflorum); details: AAH 320 g/ha
Summary of the method: as §1

SMILES: CCCC(=O)Oc1c(OC)nn(C)c(=O)c1-c1c(-c2ccc3c(c2)OCCO3)sc2ccccc12 [1-199]
- M: velvetleaf, herbicidal effect rating [1]: 0 (Herbicidal rate of 5% or less (almost no effect))
- herbicidal effect on H (barnyard grass), rating 0-5 [2]: 0 (Herbicidal rate of 5% or less (almost no effect))
- N: redroot pigweed, herbicidal effect rating [3]: 0 (Herbicidal rate of 5% or less (almost no effect))
- F: southern crabgrass, herbicidal effect rating [4]: 1 (Herbicidal rate of 5% or more and less than 20%)
- effect on blackgrass (J) [5]: 0 (Herbicidal rate of 5% or less (almost no effect))
- herbicidal effect on E (rice flat sedge), rating 0-5 [6]: 5 (Herbicidal rate of 90% or more (almost completely withered))
- effect on green foxtail (G) [7]: 0 (Herbicidal rate of 5% or less (almost no effect))
- effect on velvetleaf (M) [8]: 0 (Herbicidal rate of 5% or less (almost no effect))
- R: persian speedwell, herbicidal effect rating [9]: 5 (Herbicidal rate of 90% or more (almost completely withered))
- herbicidal effect on D (Chinese sprangletop), rating 0-5 [10]: 0 (Herbicidal rate of 5% or less (almost no effect))
- effect on barnyard grass (H) [11]: 0 (Herbicidal rate of 5% or less (almost no effect))
- effect on Italian ryegrass (K) [12]: 0 (Herbicidal rate of 5% or less (almost no effect))
- effect on wild oat (I) [13]: 0 (Herbicidal rate of 5% or less (almost no effect))
- P: chickweed, herbicidal effect rating [14]: 4 (Herbicidal rate of 70% or more and less than 90%)
- effect on lambsquarters (O) [15]: 0 (Herbicidal rate of 5% or less (almost no effect))
- O: lambsquarters, herbicidal effect rating [16]: 3 (Herbicidal rate of 40% or more and less than 70%)
- J: blackgrass, herbicidal effect rating [17]: 0 (Herbicidal rate of 5% or less (almost no effect))
- effect on false cleavers (Q) [18]: 0 (Herbicidal rate of 5% or less (almost no effect))
- L: windgrass, herbicidal effect rating [19]: 0 (Herbicidal rate of 5% or less (almost no effect))
- effect on southern crabgrass (F) [20]: 0 (Herbicidal rate of 5% or less (almost no effect))
- H: barnyard grass, herbicidal effect rating [21]: 2 (Herbicidal rate of 20% or more and less than 40%)
- I: wild oat, herbicidal effect rating [22]: 0 (Herbicidal rate of 5% or less (almost no effect))
- effect on persian speedwell (R) [23]: 4 (Herbicidal rate of 70% or more and less than 90%)
- effect on windgrass (L) [24]: 0 (Herbicidal rate of 5% or less (almost no effect))
- Q: false cleavers, herbicidal effect rating [25]: 0 (Herbicidal rate of 5% or less (almost no effect))
- K: Italian ryegrass, herbicidal effect rating [26]: 0 (Herbicidal rate of 5% or less (almost no effect))

From US20230085307A1, “PYRIDAZINONE COMPOUND AND HERBICIDE” (NISSAN CHEMICAL CORPORATION, priority 2019, published 2023)
